Drawing on patent publication US20240360134A1, “PYRAZOLOPYRIMIDINES AND THEIR USES AS PDGFR INHIBITORS” (priority 2021, published 2024), this text covers IC50 for 18 compounds.

Like-named read-outs stand apart in the source and are kept apart here.

For experiment [1], the target named is Tb-labeled inactive PDGFRβ (Homo sapiens (Human), UniProt P09619). The experiment can be described thus: biochemical. The format is binding.
For experiment [2], the target named is His6-TEV-PDGFRβ (557-1016) (Homo sapiens (Human), UniProt P09619). The experiment can be described thus: PDGFRβ HTRF Assay. It is filed as biochemical. A general note: TR-FRET usually uses a lanthanide donor and a delayed reading to cut background.
Chain of His6-TEV-PDGFRβ (557-1016) (P09619 whole entry, looked up): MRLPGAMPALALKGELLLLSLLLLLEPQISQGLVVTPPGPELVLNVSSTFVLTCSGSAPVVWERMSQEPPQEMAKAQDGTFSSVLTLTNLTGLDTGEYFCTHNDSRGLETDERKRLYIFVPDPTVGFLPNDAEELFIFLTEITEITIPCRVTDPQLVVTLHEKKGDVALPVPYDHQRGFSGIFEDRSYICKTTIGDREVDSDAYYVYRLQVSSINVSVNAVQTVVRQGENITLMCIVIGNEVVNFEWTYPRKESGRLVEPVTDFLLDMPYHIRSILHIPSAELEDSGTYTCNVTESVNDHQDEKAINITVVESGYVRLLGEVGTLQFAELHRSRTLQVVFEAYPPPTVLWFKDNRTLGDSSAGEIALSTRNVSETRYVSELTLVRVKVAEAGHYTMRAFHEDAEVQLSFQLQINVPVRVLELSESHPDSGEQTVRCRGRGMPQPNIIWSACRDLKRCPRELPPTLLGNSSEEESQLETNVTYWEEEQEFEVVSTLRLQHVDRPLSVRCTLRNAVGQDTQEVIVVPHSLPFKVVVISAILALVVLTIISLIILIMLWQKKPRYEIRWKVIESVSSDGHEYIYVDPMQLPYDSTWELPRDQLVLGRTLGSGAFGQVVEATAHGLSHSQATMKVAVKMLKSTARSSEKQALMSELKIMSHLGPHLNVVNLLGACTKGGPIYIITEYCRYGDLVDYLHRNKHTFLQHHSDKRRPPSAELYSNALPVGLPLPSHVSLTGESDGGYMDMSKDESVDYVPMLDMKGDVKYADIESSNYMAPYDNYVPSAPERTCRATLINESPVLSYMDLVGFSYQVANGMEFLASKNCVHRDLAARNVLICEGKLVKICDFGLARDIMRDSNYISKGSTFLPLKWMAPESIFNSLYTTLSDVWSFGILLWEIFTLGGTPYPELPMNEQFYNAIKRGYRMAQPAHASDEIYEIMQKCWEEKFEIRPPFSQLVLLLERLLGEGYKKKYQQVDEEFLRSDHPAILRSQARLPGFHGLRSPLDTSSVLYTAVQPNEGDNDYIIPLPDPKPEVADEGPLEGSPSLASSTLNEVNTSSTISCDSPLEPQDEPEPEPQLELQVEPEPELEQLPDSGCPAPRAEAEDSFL
Another experiment addresses VEGFR2, unphosphorylated (Homo sapiens (Human), UniProt P35968). In words: VEGFR ADP GLO assay. As to conditions: 5 nM VEGFR2, 1.2 mM ATP, 1 mg/mL Srctide, 180 min. The format is biochemical. An outline of the steps: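 Luminescent ADP detection after a 180-min room-temperature reaction of srctide plus ATP (2 mg/mL and 2.4 mM in 2× mix) in pH 7.5 HEPES buffer with DTT, Pluronic and ovalbumin. Compounds, 11 points from 10 µM, first pre-incubated 30 min with enzyme (2× mix 10 nM). IC50s fitted after scaling between DMSO and 1 µM TAK-593 controls.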
(In general: ADP-Glo turns the ADP formed in a reaction into a luminescent signal.)

For a further experiment, the target named is PDGFRβ (Rattus norvegicus (Rat), UniProt Q05030). In words: PDGFRβ Cellular Assay (PDGFRb P-Y751 HTRF, PDGF-BB stimulated A10 cells). It is filed as cell-based. An outline of the steps: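 Rat A10 cells plated overnight were treated with compound for 3 h, stimulated with rat PDGF-BB (working stock 100 ng/mL in 10% FBS medium) for 10 min, then lysed.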
Chain of PDGFRβ (Q05030 whole entry, looked up): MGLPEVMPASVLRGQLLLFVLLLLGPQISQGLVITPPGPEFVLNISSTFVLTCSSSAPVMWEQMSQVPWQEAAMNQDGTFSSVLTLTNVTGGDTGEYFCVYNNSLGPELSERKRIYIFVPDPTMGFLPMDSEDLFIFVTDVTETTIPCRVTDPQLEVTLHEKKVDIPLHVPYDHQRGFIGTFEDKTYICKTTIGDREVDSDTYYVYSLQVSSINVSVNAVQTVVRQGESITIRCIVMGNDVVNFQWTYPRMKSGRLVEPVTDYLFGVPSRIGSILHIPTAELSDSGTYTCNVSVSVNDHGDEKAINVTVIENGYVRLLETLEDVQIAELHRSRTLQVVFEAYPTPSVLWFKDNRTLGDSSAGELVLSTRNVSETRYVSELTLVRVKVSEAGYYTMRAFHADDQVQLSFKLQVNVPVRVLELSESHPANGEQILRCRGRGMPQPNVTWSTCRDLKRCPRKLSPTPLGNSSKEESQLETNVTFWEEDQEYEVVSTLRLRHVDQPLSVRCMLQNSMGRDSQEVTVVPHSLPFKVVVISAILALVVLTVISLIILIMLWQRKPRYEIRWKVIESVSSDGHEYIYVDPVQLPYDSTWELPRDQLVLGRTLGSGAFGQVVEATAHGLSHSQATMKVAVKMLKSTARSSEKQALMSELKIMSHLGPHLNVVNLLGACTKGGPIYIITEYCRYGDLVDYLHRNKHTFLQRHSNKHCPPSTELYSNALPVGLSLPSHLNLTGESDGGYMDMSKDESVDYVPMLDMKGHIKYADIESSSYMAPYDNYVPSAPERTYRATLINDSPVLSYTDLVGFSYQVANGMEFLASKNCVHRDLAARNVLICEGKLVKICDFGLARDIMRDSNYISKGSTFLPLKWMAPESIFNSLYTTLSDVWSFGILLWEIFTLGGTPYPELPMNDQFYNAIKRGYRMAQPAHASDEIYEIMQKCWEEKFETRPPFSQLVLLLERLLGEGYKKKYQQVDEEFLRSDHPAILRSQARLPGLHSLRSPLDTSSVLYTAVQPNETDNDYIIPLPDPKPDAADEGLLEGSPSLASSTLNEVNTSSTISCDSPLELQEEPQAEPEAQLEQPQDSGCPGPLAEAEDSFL

Where [3] appears, read: 800 μM ATP, 0.5 μM TK-substrate biotin peptide, 30 min pre-incubation, 3 hours reaction, read-out: PDGFR HTRF IC50.
Where [4] appears, read: A10 cells, 3 hours compound, 15 ng/mL PDGFbb for 10 minutes, read-out: PDGFR Cellular IC50.

Chain of Tb-labeled inactive PDGFRβ (P09619 whole entry, looked up): as the sequence (P09619 whole entry, looked up) above
Chain of VEGFR2, unphosphorylated (P35968 whole entry, looked up): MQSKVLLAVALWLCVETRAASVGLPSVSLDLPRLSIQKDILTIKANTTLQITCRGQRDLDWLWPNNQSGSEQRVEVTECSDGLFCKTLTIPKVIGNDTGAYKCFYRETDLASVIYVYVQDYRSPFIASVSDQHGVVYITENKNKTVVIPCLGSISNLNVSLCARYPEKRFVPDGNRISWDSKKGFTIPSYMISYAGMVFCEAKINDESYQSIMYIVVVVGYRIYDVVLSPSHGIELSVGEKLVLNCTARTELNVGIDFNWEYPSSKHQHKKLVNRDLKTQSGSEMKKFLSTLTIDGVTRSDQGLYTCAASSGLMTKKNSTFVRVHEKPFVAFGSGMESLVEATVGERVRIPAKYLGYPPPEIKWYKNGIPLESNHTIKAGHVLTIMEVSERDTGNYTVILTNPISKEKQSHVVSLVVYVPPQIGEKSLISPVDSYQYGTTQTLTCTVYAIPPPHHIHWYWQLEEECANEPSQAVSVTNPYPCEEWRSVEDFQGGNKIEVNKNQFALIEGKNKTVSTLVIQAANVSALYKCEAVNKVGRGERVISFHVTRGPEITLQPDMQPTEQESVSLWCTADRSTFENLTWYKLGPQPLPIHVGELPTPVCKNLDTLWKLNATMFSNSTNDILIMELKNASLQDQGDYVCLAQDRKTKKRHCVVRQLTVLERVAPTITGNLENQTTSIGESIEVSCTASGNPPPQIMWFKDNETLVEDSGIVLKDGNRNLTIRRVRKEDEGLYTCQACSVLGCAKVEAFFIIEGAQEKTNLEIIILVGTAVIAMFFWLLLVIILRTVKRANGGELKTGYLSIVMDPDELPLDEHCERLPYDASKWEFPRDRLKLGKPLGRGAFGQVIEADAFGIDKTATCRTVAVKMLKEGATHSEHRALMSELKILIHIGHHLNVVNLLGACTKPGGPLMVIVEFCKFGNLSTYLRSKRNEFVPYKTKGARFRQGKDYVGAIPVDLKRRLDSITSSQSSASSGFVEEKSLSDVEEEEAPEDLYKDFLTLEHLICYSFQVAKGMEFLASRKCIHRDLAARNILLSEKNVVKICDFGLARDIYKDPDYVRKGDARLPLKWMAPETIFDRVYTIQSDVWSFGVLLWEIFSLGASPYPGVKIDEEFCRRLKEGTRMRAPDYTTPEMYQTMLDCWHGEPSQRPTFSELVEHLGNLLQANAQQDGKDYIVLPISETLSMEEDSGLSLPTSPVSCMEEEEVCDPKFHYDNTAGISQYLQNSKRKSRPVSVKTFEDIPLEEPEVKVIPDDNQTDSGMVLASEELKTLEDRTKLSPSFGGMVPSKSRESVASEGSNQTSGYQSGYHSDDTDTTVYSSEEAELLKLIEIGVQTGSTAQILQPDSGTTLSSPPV

Usually IC50 stands for the concentration that inhibits the measured activity by half. Turning to `Cc1ncc(C(=O)NCCN2CCCC2(C)C)cc1Nc1nn(C)c2nc(Nc3ccc(N4CCOCC4)nc3)ncc12` [Example 102, N-(2-(2,2-dimethylpyrrolidin-1-yl)ethyl)-6-methyl-5-((1-methyl-6-((6-morpholinopyridin-3-yl)amino)-1H-pyrazolo[3,4-d]pyrimidin-3-yl)amino)nicotinamide], the IC50 in experiment [1] (read-out: PDGFR Lantha IC50) is 3.8 nM; in experiment [2] (setting [3]) it was 0.37 nM; against VEGFR2, unphosphorylated, over 7500 nM; on PDGFRβ (setting [4]), 7.6 nM.

Turning to `Cc1nn(C)cc1Nc1ncc2c(Nc3cc(C(=O)NCCN4CCCC4(C)C)cnc3C)nn(C)c2n1` [Example 161, 5-((6-((1,3-dimethyl-1H-pyrazol-4-yl)amino)-1-methyl-1H-pyrazolo[3,4-d]pyrimidin-3-yl)amino)-N-(2-(2,2-dimethylpyrrolidin-1-yl)ethyl)-6-methylnicotinamide], the half-inhibitory concentration (IC50) was 13.3 nM in experiment [1] (read-out: PDGFR Lantha IC50); 1.65 nM in experiment [2] (setting [3]); over 7500 nM against VEGFR2, unphosphorylated; 24.8 nM on PDGFRβ (setting [4]).

As for `C[C@H]1CCCN1CCNC(=O)c1ccc(F)c(Nc2nn(C)c3nc(Nc4cnn(C)c4)ncc23)c1` [Example 119, (S)-4-fluoro-3-((1-methyl-6-((1-methyl-1H-pyrazol-4-yl)amino)-1H-pyrazolo[3,4-d]pyrimidin-3-yl)amino)-N-(2-(2-methylpyrrolidin-1-yl)ethyl)benzamide], the IC50 in experiment [1] (read-out: PDGFR Lantha IC50) worked out at 1.4 nM; in experiment [2] (setting [3]) it was 0.13 nM; at VEGFR2, unphosphorylated it was 6600 nM; on PDGFRβ (setting [4]) it was 5.8 nM.

For the compound `Cc1ncccc1Nc1ncc2c(Nc3cc(NC(=O)CN4CCC[C@@H]4C)cnc3C)nn(C)c2n1` [Example 145, (S)—N-(6-methyl-5-((1-methyl-6-((2-methylpyridin-3-yl)amino)-1H-pyrazolo[3,4-d]pyrimidin-3-yl)amino)pyridin-3-yl)-2-(2-methylpyrrolidin-1-yl)acetamide], the IC50 is 15.3 nM in experiment [1] (read-out: PDGFR Lantha IC50); 1.59 nM in experiment [2] (setting [3]); over 7500 nM at VEGFR2, unphosphorylated; 8.7 nM at PDGFRβ (setting [4]).

As for `Cc1cc(C(=O)NCCN2CCCC2(C)C)sc1Nc1nn(C)c2nc(Nc3cncnc3)ncc12` [Example 48, N-(2-(2,2-dimethylpyrrolidin-1-yl)ethyl)-4-methyl-5-((1-methyl-6-(pyrimidin-5-ylamino)-1H-pyrazolo[3,4-d]pyrimidin-3-yl)amino)thiophene-2-carboxamide], the IC50 in experiment [1] (read-out: PDGFR Lantha IC50) is 52.8 nM; in experiment [2] (setting [3]), 1.07 nM; against VEGFR2, unphosphorylated, over 7500 nM; on PDGFRβ (setting [4]), 110 nM.

On to `Cc1ncc(C(=O)NCCN2CCCCC23CC3)cc1Nc1nn(C)c2nc(Nc3cnn(C)c3)ncc12` [Example 150, N-(2-(4-azaspiro[2.5]octan-4-yl)ethyl)-6-methyl-5-((1-methyl-6-((1-methyl-1H-pyrazol-4-yl)amino)-1H-pyrazolo[3,4-d]pyrimidin-3-yl)amino)nicotinamide], for which the concentration for half-maximal inhibition (IC50) in experiment [1] (read-out: PDGFR Lantha IC50) was determined as 1.2 nM; in experiment [2] (setting [3]), 0.3 nM; at VEGFR2, unphosphorylated, 1550 nM; at PDGFRβ (setting [4]), 4.3 nM.

Take `CC[C@@H]1CN(CCNC(=O)c2cnc(C)c(Nc3nn(C)c4nc(Nc5ccnc(N6CCC(CCO)CC6)c5)ncc34)c2)CCO1` [Example 113, (R)—N-(2-(2-ethylmorpholino)ethyl)-5-((6-((2-(4-(2-hydroxyethyl)piperidin-1-yl)pyridin-4-yl)amino)-1-methyl-1H-pyrazolo[3,4-d]pyrimidin-3-yl)amino)-6-methylnicotinamide]: the IC50 in experiment [1] (read-out: PDGFR Lantha IC50) was 6.8 nM; in experiment [2] (setting [3]), 0.94 nM; at VEGFR2, unphosphorylated it was over 7500 nM; on PDGFRβ (setting [4]), 116 nM.

Take `Cc1ccc(C(=O)NCCN2CCCC2(C)C)cc1Nc1nn(C)c2nc(Nc3cnn(C)c3)ncc12` [Example 66, N-(2-(2,2-dimethylpyrrolidin-1-yl)ethyl)-4-methyl-3-((1-methyl-6-((1-methyl-1H-pyrazol-4-yl)amino)-1H-pyrazolo[3,4-d]pyrimidin-3-yl)amino)benzamide]: the 50% inhibitory concentration (IC50) turned out to be 2.3 nM in experiment [1] (read-out: PDGFR Lantha IC50); 0.28 nM in experiment [2] (setting [3]); 1330 nM against VEGFR2, unphosphorylated; 3.4 nM at PDGFRβ (setting [4]).

Consider `CC[C@H]1COCCN1CCNC(=O)c1cnc(C)c(Nc2nn(C)c3nc(Nc4cnn(C)c4)ncc23)c1` [Example 81, (S)—N-(2-(3-ethylmorpholino)ethyl)-6-methyl-5-((1-methyl-6-((1-methyl-1H-pyrazol-4-yl)amino)-1H-pyrazolo[3,4-d]pyrimidin-3-yl)amino)nicotinamide], for which the half-maximal inhibitory concentration (IC50) amounted to 2.6 nM in experiment [1]; 0.42 nM in experiment [2]; 2500 nM against VEGFR2, unphosphorylated; 21.1 nM against PDGFRβ.

With `Cc1ncc(C(=O)NCCN2CCCC2(C)C)cc1Nc1nn(C)c2nc(Nc3cncc(C(=O)O)c3)ncc12` [Example 30, 5-((3-((5-((2-(2,2-dimethylpyrrolidin-1-yl)ethyl)carbamoyl)-2-methylpyridin-3-yl)amino)-1-methyl-1H-pyrazolo[3,4-d]pyrimidin-6-yl)amino)nicotinic acid], the IC50 is 36.8 nM in experiment [1] (read-out: PDGFR Lantha IC50); 3.8 nM in experiment [2] (setting [3]); over 10000 nM against VEGFR2, unphosphorylated; over 10000 nM on PDGFRβ (setting [4]).

For the compound `Cc1ncc(C(=O)NCCN2CCCC23CC3)cc1Nc1nn(C)c2nc(Nc3cncnc3)ncc12` [Example 57, N-(2-(4-azaspiro[2.4]heptan-4-yl)ethyl)-6-methyl-5-((1-methyl-6-(pyrimidin-5-ylamino)-1H-pyrazolo[3,4-d]pyrimidin-3-yl)amino)nicotinamide], the IC50 in experiment [1] (read-out: PDGFR Lantha IC50) was 5.6 nM; in experiment [2] (setting [3]), 0.97 nM; against VEGFR2, unphosphorylated, over 7500 nM; at PDGFRβ (setting [4]) it was 15.6 nM.

Consider `Cc1ncc(C(=O)NCCN(CCCO)C2CCCC2)cc1Nc1nn(C)c2nc(Nc3cnn(C)c3)ncc12` [Example 96, N-(2-(cyclopentyl(3-hydroxypropyl)amino)ethyl)-6-methyl-5-((1-methyl-6-((1-methyl-1H-pyrazol-4-yl)amino)-1H-pyrazolo[3,4-d]pyrimidin-3-yl)amino)nicotinamide], for which the IC50 in experiment [1] (read-out: PDGFR Lantha IC50) was 2.8 nM; in experiment [2] (setting [3]) it was 0.43 nM; on VEGFR2, unphosphorylated it was over 7500 nM; at PDGFRβ (setting [4]), 139 nM.

As for `Cc1ccc(C(=O)NCCN2CCC3(CC3)C2)cc1Nc1nn(C)c2nc(Nc3cnn(C)c3)ncc12` [Example 67, N-(2-(5-azaspiro[2.4]heptan-5-yl)ethyl)-4-methyl-3-((1-methyl-6-((1-methyl-1H-pyrazol-4-yl)amino)-1H-pyrazolo[3,4-d]pyrimidin-3-yl)amino)benzamide], the IC50 in experiment [1] (read-out: PDGFR Lantha IC50) was found to be 1.9 nM; in experiment [2] (setting [3]), 0.22 nM; against VEGFR2, unphosphorylated, 1660 nM; at PDGFRβ (setting [4]), 9.8 nM.

Consider `Cc1ncc(NC(=O)NCCN2CCCC2(C)C)cc1Nc1nn(C)c2nc(Nc3cncnc3)ncc12` [Example 16, 1-(2-(2,2-dimethylpyrrolidin-1-yl)ethyl)-3-(6-methyl-5-((1-methyl-6-(pyrimidin-5-ylamino)-1H-pyrazolo[3,4-d]pyrimidin-3-yl)amino)pyridin-3-yl)urea], for which the 50% inhibitory concentration (IC50) in experiment [1] (read-out: PDGFR Lantha IC50) was 18.5 nM; in experiment [2] (setting [3]), 1.36 nM; against VEGFR2, unphosphorylated it was over 7500 nM; on PDGFRβ (setting [4]) it was 1480 nM.

As to `Cc1cc(C(=O)NCCN2CCC[C@@H]2C)sc1Nc1nn(C)c2nc(Nc3cnn(C)c3)ncc12` [Example 60, (S)-4-methyl-5-((1-methyl-6-((1-methyl-1H-pyrazol-4-yl)amino)-1H-pyrazolo[3,4-d]pyrimidin-3-yl)amino)-N-(2-(2-methylpyrrolidin-1-yl)ethyl)thiophene-2-carboxamide], the concentration for half-maximal inhibition (IC50) in experiment [1] (read-out: PDGFR Lantha IC50) is 9.7 nM; in experiment [2] (setting [3]) it was 0.65 nM; on VEGFR2, unphosphorylated, over 7500 nM; at PDGFRβ (setting [4]) it was 67.2 nM.

In the case of `Cc1ncc(C(=O)NCCN(C(C)C)C(C)C)cc1Nc1nn(C)c2nc(Nc3cncnc3)ncc12` [Example 15, N-(2-(diisopropylamino)ethyl)-6-methyl-5-((1-methyl-6-(pyrimidin-5-ylamino)-1H-pyrazolo[3,4-d]pyrimidin-3-yl)amino)nicotinamide], the IC50 in experiment [1] (read-out: PDGFR Lantha IC50) is 9.9 nM; in experiment [2] (setting [3]), 1.01 nM; against VEGFR2, unphosphorylated, over 7500 nM; at PDGFRβ (setting [4]), 33.2 nM.

For `Cc1ncc(C(=O)NCCN2C[C@H](C)O[C@@H](C)C2)cc1Nc1nn(C)c2nc(Nc3cncnc3)ncc12` [Example 114, N-(2-((2S,6S)-2,6-dimethylmorpholino)ethyl)-6-methyl-5-((1-methyl-6-(pyrimidin-5-ylamino)-1H-pyrazolo[3,4-d]pyrimidin-3-yl)amino)nicotinamide], the IC50 in experiment [1] (read-out: PDGFR Lantha IC50) was 9.1 nM; in experiment [2] (setting [3]), 0.88 nM; against VEGFR2, unphosphorylated it was over 7500 nM; on PDGFRβ (setting [4]), 72.9 nM.

Consider `Cc1ncc(C(=O)NCCN2CCCOCC2)cc1Nc1nn(C)c2nc(Nc3cnn(C)c3)ncc12` [Example 17, N-(2-(1,4-oxazepan-4-yl)ethyl)-6-methyl-5-((1-methyl-6-((1-methyl-1H-pyrazol-4-yl)amino)-1H-pyrazolo[3,4-d]pyrimidin-3-yl)amino)nicotinamide], for which the IC50 is 2.9 nM in experiment [1] (read-out: PDGFR Lantha IC50); 0.48 nM in experiment [2] (setting [3]); about 6990 nM on VEGFR2, unphosphorylated; 68.3 nM at PDGFRβ (setting [4]).
